As usually defined, the pIC50 is the negative decadic logarithm of the IC50, by convention in mol/L.

Among the data in publication PMC7933116 (Cell metabolism, 2020) are IC50 values, retold here.

The test addresses MCT1 (Homo sapiens, UniProt P53985). Nature of the test: BCECF fluorescence lactate transport assay in MCT1-expressing BT20 cells. Type of test: cell-based.

SMILES strings stand for the structures. pIC50: −log10 of the molar value.

MCT1, sequence (P53985 whole entry): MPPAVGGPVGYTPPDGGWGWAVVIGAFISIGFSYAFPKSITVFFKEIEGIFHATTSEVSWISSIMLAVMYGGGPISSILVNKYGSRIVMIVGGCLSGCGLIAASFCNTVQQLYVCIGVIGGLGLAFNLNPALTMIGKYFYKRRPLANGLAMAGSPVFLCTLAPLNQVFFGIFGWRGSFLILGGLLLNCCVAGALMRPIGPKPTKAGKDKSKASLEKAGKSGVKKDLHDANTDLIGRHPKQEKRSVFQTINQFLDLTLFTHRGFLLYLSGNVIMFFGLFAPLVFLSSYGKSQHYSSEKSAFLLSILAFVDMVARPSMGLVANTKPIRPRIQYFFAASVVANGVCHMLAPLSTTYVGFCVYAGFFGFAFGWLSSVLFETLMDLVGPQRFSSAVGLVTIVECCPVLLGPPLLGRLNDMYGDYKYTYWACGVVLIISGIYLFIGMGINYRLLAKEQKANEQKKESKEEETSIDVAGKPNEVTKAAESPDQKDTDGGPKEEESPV

`CC(C)(OCc1cc(-c2cccc(OC3CC3)c2)n(-c2ccccc2Cl)n1)C(=O)O` [VB124, 2-[[1-(2-chlorophenyl)-5-(3-cyclopropoxyphenyl)-1H-pyrazol-3-yl]methoxy]-2-methylpropanoic acid] gave a pIC50 of 4.62.
